From PubChem BioAssay AID1963427 (Molecular Pharmacology Branch, DTP, NCI, 2024)

Test system: 317291-083-R-J1-PDC complex spheroid growth
Assay: Anticancer human tumor 317291-083-R-J1-PDC patient-derived soft tissue sarcoma cell line growth inhibition [Asc]
Conditions: for IC50: curve of first compound; for viability, T/C: stronger effect = lower value; active means viability on the fitted dose curve at most 10% of control; inactive means the rest
Method in brief: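 Tumor cells were grown as multicellular spheroids with stromal HUVEC and mesenchymal stem cells and treated singly or in combination. Concentrations fell in half-log steps from the clinical Cmax, or from 10 microM where none was known.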

[1] = second compound 0.00949 µM, first compound 0.0316 µM
[2] = second compound 0.00949 µM, first compound 0.1 µM
[3] = second compound 0.00949 µM, first compound 0.316 µM
[4] = second compound 0.00949 µM, first compound 1 µM
[5] = second compound 0.00949 µM, first compound 3.16 µM
[6] = second compound 0.00949 µM, first compound 10 µM
[7] = second compound 0.03 µM, first compound 0.0316 µM
[8] = second compound 0.03 µM, first compound 0.1 µM
[9] = second compound 0.03 µM, first compound 0.316 µM
[10] = second compound 0.03 µM, first compound 1 µM
[11] = second compound 0.03 µM, first compound 3.16 µM
[12] = second compound 0.03 µM, first compound 10 µM
[13] = second compound 0.0949 µM, first compound 0.0316 µM
[14] = second compound 0.0949 µM, first compound 0.1 µM
[15] = second compound 0.0949 µM, first compound 0.316 µM
[16] = second compound 0.0949 µM, first compound 1 µM
[17] = second compound 0.0949 µM, first compound 3.16 µM
[18] = second compound 0.0949 µM, first compound 10 µM
[19] = second compound 0.3 µM, first compound 0.0316 µM
[20] = second compound 0.3 µM, first compound 0.1 µM
[21] = second compound 0.3 µM, first compound 0.316 µM
[22] = second compound 0.3 µM, first compound 1 µM
[23] = second compound 0.3 µM, first compound 3.16 µM
[24] = second compound 0.3 µM, first compound 10 µM
[25] = second compound 0.949 µM, first compound 0.0316 µM
[26] = second compound 0.949 µM, first compound 0.1 µM
[27] = second compound 0.949 µM, first compound 0.316 µM
[28] = second compound 0.949 µM, first compound 1 µM
[29] = second compound 0.949 µM, first compound 3.16 µM
[30] = second compound 0.949 µM, first compound 10 µM
[31] = second compound 3 µM, first compound 0.0316 µM
[32] = second compound 3 µM, first compound 0.1 µM
[33] = second compound 3 µM, first compound 0.316 µM
[34] = second compound 3 µM, first compound 1 µM
[35] = second compound 3 µM, first compound 3.16 µM
[36] = second compound 3 µM, first compound 10 µM
[37] = second compound 0.00949 µM, first compound 0.00316 µM
[38] = second compound 0.00949 µM, first compound 0.01 µM
[39] = second compound 0.03 µM, first compound 0.00316 µM
[40] = second compound 0.03 µM, first compound 0.01 µM
[41] = second compound 0.0949 µM, first compound 0.00316 µM
[42] = second compound 0.0949 µM, first compound 0.01 µM
[43] = second compound 0.3 µM, first compound 0.00316 µM
[44] = second compound 0.3 µM, first compound 0.01 µM
[45] = second compound 0.949 µM, first compound 0.00316 µM
[46] = second compound 0.949 µM, first compound 0.01 µM
[47] = second compound 3 µM, first compound 0.00316 µM
[48] = second compound 3 µM, first compound 0.01 µM
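Further: compound exposure lasted seven days after spheroids formed for three days.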
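Wherever viability, T/C is given: 100% = DMSO vehicle control wells.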

C=C(F)C(=O)N1CCN(c2nc(OCC3CCCN3C)nc3c2CCN(c2cccc4cccc(Cl)c24)C3)CC1CC#N (stereo not drawn) + CCN1C(C(=O)NC23CCC(C(=O)O)(CC2)CC3)C(c2cccc(Cl)c2F)C2(C(=O)Nc3cc(Cl)ccc32)C12CCCCC2
inactive: viability, T/C [1] 105% | viability, T/C [2] 101% | viability, T/C [3] 90.2% | viability, T/C [4] 93.2% | viability, T/C [5] 39.3% | viability, T/C [7] 92.7% | viability, T/C [8] 91.8% | viability, T/C [9] 99.3% | viability, T/C [10] 95.2% | viability, T/C [11] 45.1% | viability, T/C [13] 106% | viability, T/C [14] 89% | viability, T/C [15] 122% | viability, T/C [16] 98.7% | viability, T/C [17] 61.9% | viability, T/C [19] 106% | viability, T/C [20] 92.4% | viability, T/C [21] 92.7% | viability, T/C [22] 86.8% | viability, T/C [23] 24.8% | viability, T/C [25] 104% | viability, T/C [26] 93% | viability, T/C [27] 91.9% | viability, T/C [28] 98% | viability, T/C [29] 36.1% | viability, T/C [31] 78.2% | viability, T/C [32] 91.9% | viability, T/C [33] 85.5% | viability, T/C [34] 64.5% | viability, T/C [35] 41.4%
2430 nM: IC50 (second compound 0.949 µM)
3940 nM: IC50 (second compound 0.0949 µM)
active: viability, T/C [6] 0.31% | viability, T/C [12] 0.14% | viability, T/C [18] 0.14% | viability, T/C [24] 0.21% | viability, T/C [30] 0.19% | viability, T/C [36] 1.13%
2110 nM: IC50 (second compound 3 µM)
2510 nM: IC50 (second compound 0.00949 µM)
1980 nM: IC50 (second compound 0.3 µM)
2830 nM: IC50 (second compound 0.03 µM)

C=CC(=O)N1CCN(c2nc(=O)n(-c3c(C)ccnc3C(C)C)c3nc(-c4c(O)cccc4F)c(F)cc23)C(C)C1 (stereo not drawn) + CCN1C(C(=O)NC23CCC(C(=O)O)(CC2)CC3)C(c2cccc(Cl)c2F)C2(C(=O)Nc3cc(Cl)ccc32)C12CCCCC2
inactive: viability, T/C [1] 94.8% | viability, T/C [2] 79.8% | viability, T/C [3] 85.8% | viability, T/C [4] 92.5% | viability, T/C [5] 77.6% | viability, T/C [6] 71.8% | viability, T/C [7] 90.1% | viability, T/C [8] 80.2% | viability, T/C [9] 93.2% | viability, T/C [10] 89.3% | viability, T/C [11] 84.8% | viability, T/C [12] 71.2% | viability, T/C [13] 101% | viability, T/C [14] 93.3% | viability, T/C [15] 98.6% | viability, T/C [16] 94.7% | viability, T/C [17] 84% | viability, T/C [18] 71.4% | viability, T/C [19] 99.7% | viability, T/C [20] 81.2% | viability, T/C [21] 94.1% | viability, T/C [22] 93.3% | viability, T/C [23] 111% | viability, T/C [24] 69.2% | viability, T/C [25] 85.2% | viability, T/C [26] 84.7% | viability, T/C [27] 89.2% | viability, T/C [28] 77.7% | viability, T/C [29] 83.3% | viability, T/C [30] 67% | viability, T/C [31] 68.6% | viability, T/C [32] 72.6% | viability, T/C [33] 72.4% | viability, T/C [34] 98.5% | viability, T/C [35] 82.3% | viability, T/C [36] 46.3%
> 10000 nM: IC50 (second compound 0.00949 µM) | IC50 (second compound 0.03 µM) | IC50 (second compound 0.0949 µM) | IC50 (second compound 0.3 µM) | IC50 (second compound 0.949 µM)
8770 nM: IC50 (second compound 3 µM)

COc1c(OCCCN2CCOCC2)ccc2c3n(c(=NC(=O)c4cnc(N)nc4)nc12)CCN3 + CCN1C(C(=O)NC23CCC(C(=O)O)(CC2)CC3)C(c2cccc(Cl)c2F)C2(C(=O)Nc3cc(Cl)ccc32)C12CCCCC2
180 nM: IC50 (second compound 0.949 µM)
173 nM: IC50 (second compound 0.3 µM)
inactive: viability, T/C [37] 95.6% | viability, T/C [38] 85.8% | viability, T/C [1] 85% | viability, T/C [2] 64.9% | viability, T/C [3] 34.6% | viability, T/C [4] 16.3% | viability, T/C [39] 95.6% | viability, T/C [40] 79.2% | viability, T/C [7] 79.5% | viability, T/C [8] 56.2% | viability, T/C [9] 43.8% | viability, T/C [10] 13.9% | viability, T/C [41] 93.7% | viability, T/C [42] 83.4% | viability, T/C [13] 81.3% | viability, T/C [14] 79.4% | viability, T/C [15] 34.8% | viability, T/C [16] 16.9% | viability, T/C [43] 120% | viability, T/C [44] 76.9% | viability, T/C [19] 84.7% | viability, T/C [20] 67% | viability, T/C [21] 37.1% | viability, T/C [22] 17.4% | viability, T/C [45] 85.1% | viability, T/C [46] 74% | viability, T/C [25] 86.8% | viability, T/C [26] 58.5% | viability, T/C [27] 39.2% | viability, T/C [28] 15.4% | viability, T/C [47] 88.2% | viability, T/C [48] 71% | viability, T/C [31] 73.3% | viability, T/C [32] 55% | viability, T/C [33] 32.8% | viability, T/C [34] 15.2%
213 nM: IC50 (second compound 0.0949 µM)
127 nM: IC50 (second compound 3 µM)
182 nM: IC50 (second compound 0.03 µM)
177 nM: IC50 (second compound 0.00949 µM)

NC1CCC(NC2CC2c2ccccc2)CC1 (stereo not drawn) + CCN1C(C(=O)NC23CCC(C(=O)O)(CC2)CC3)C(c2cccc(Cl)c2F)C2(C(=O)Nc3cc(Cl)ccc32)C12CCCCC2
> 100 nM: IC50 (second compound 0.00949 µM) | IC50 (second compound 0.03 µM) | IC50 (second compound 0.0949 µM) | IC50 (second compound 0.3 µM) | IC50 (second compound 0.949 µM) | IC50 (second compound 3 µM)
inactive: viability, T/C (second compound 0.00949 µM, first compound 0.000316 µM) 92.4% | viability, T/C (second compound 0.00949 µM, first compound 0.001 µM) 103% | viability, T/C [37] 96.6% | viability, T/C [38] 97% | viability, T/C [1] 95.5% | viability, T/C [2] 94.2% | viability, T/C (second compound 0.03 µM, first compound 0.000316 µM) 109% | viability, T/C (second compound 0.03 µM, first compound 0.001 µM) 100% | viability, T/C [39] 106% | viability, T/C [40] 114% | viability, T/C [7] 107% | viability, T/C [8] 94.2% | viability, T/C (second compound 0.0949 µM, first compound 0.000316 µM) 103% | viability, T/C (second compound 0.0949 µM, first compound 0.001 µM) 81.3% | viability, T/C [41] 87.6% | viability, T/C [42] 95.7% | viability, T/C [13] 106% | viability, T/C [14] 108% | viability, T/C (second compound 0.3 µM, first compound 0.000316 µM) 116% | viability, T/C (second compound 0.3 µM, first compound 0.001 µM) 108% | viability, T/C [43] 98.9% | viability, T/C [44] 80.3% | viability, T/C [19] 102% | viability, T/C [20] 111% | viability, T/C (second compound 0.949 µM, first compound 0.000316 µM) 98.9% | viability, T/C (second compound 0.949 µM, first compound 0.001 µM) 120% | viability, T/C [45] 76.2% | viability, T/C [46] 93.8% | viability, T/C [25] 97.6% | viability, T/C [26] 106% | viability, T/C (second compound 3 µM, first compound 0.000316 µM) 99.7% | viability, T/C (second compound 3 µM, first compound 0.001 µM) 107% | viability, T/C [47] 81.5% | viability, T/C [48] 74.2% | viability, T/C [31] 83.6% | viability, T/C [32] 74.3%
